Holding throughout (assay type): cell-based
One assay relates to SKMEL-188 melanoma cells. Put plainly: DNA content analysis by flow cytometry. The following applies: SKMEL-188, 48 hours, 6 μM and 60 μM, FIG. 11B, Hydrochloride. On the procedure:
SKMEL-188 melanoma cells were incubated with Compound 4(R) at 60 μM for 48 hours. FIG. 11A is a graph showing the cytotoxicity as measured by LDH release from the cells following treatment. Data is presented as mean±SEM (n=8), *p<0.05, **p<0.005. FIG. 11B is a pair of graphs that show the DNA content, as measured by flow cytometry, of cells that were exposed to control (left) and Compound 4(R) (right).
DNA Content Analysis: SKMEM-188 cells were seeded in 10 cm Petri dishes at a density of 10^6 cell per dish. At 12 hours, the medium was changed to 5% FBS with different concentrations of the testing compound. Cells were incubated for 48 hours, and media with compounds were changed every 24 hours. Cells were trypsinized, washed with PBS, and fixed in ice-cold 70% ethanol. After fixing, the ethanol was removed by centrifugation, and cells were incubated in phosphate-citrate buffer (0.2M Na2HPO4, 4 mM citric acid, pH=7.8) for 1 hour. […] Samples were shaken for 30 minutes, and analyzed with FACS Caliber cytometer (Becton Dickinson, San Diego, Calif.). Data was analyzed and graphs were prepared using Modfit 2.0 (Verity Sofware House, Topsham, Me.).
To examine more closely the cell death induced by the tested compounds, LDH release was measured by calorimetric assay and DNA content was analyzed by flow cytometry. […]

A further assay concerns human dermal fibroblasts. Nature of the assay: Sulforhodamine B assay, fibroblast control cells. The following applies: Homo sapiens, Fibroblast, 48 h, SRB assay, 48 h incubation. (The SRB assay estimates cell density from bound dye.)
Assay [1] relates to SKMEL-188 and WM-164 cell lines. Nature of the assay: SRB assay, statements on both melanoma cell lines. On the procedure:
Louis, Mo.). WM-164 cells (gift of Dr. Meenhard Herlyn, Wistar Inst., Philadelphia, Pa.) and human dermal fibroblasts (Cascade Biologics, Inc., Portland, Oreg.) were cultured in DMEM medium (Cellgro Mediatech, Inc.) supplemented with 5% fetal bovine serum, 1% antibiotic.antimycotic mixture and bovine insulin ([…], Sigma-Aldrich, Inc.). Human dermal fibroblasts were used as a control to examine the effects of compounds on stromal environment. Thus, the effect of the various compounds on melanoma cells versus fibroblasts would document their potential selectivity. Sulforhodamine B Assay: Cells were seeded into 96-well plates at 5000 cells/well. After 12 hours, media were changed and serial dilutions of compounds were added. Cells were incubated with each compound for 48 hours. Fresh media containing the test compound were changed ever 24 hours. Thereafter, total cell protein corresponding to cell numbers (both viable and non-viable cells) were measured using the sulforhodamine B (SRB) assay according to manufacturer's protocol (Sigma-Aldrich, Inc.) (Rubinstein et al., “Comparison of in vitro Anticancer Drug-screening Data Generated with a Tetrazolium Assay Versus a Protein Assay Against a Diverse Panel of Human Tumor Cell Lines,” J. Natl. Cancer Inst. 82:1113-1118 (1990); Dothager et al., “Synthesis and Identification of Small Molecules that Potently Induce Apoptosis in Melanoma Cells Through GI Cell Cycle Arrest,” J. Am. Chem. Soc. 127:8686-8696 (2005), each of which is hereby incorporated by reference in its entirety). Briefly, cells were fixed with trichloracetic acid, washed and incubated with sulforhodamine B for 30 minutes. After another wash, dye incorporated into the cells was solubilized and measured using a plate reader at 565 nm. Statistical Analysis: Data is presented as mean±SEM (n=6-8). […] Statistical analyses were performed with Student's t-test (*p<0.05; **p<0.005). […] DTIC and Taxol were assayed in the same way for comparison and served as internal quality controls in the different batches of assay. For comparison, the activities of 5R and 5S were measured.

Each structure is given as a SMILES string.

This is an account of results in patent US7662842B2, “Thiazolidinone amides, thiazolidine carboxylic acid amides, and serine amides, including polyamine conjugates thereof, as selective anti-cancer agents” (Ohio State Univesity Research Foundation, priority 2003, dated 2010).

By IC50 is commonly meant the concentration at which inhibition is half-maximal. For `CCCCCCCCCCCCCCNC(=O)[C@@H]1CSC(c2ccccc2)N1.Cl` (mixture of isomers) [Compound 4, (2RS, 4R)-2-Phenylthiazolidine-4-carboxylic acid tetradecylamide Hydrochloride], the “DNA content / mode of cell death” value with SKMEL-188 melanoma cells (listed as 4 (R enantiomer)) was “causes necrotic cell death”; in the assay with SKMEL-188 melanoma cells (listed as 4R), “disappearance of peaks corresponding to viable, proliferating cells”. Moreover, the IC50 in the assay with human dermal fibroblasts is 6.1 µM; in assay [1] (48 h, read-out: IC50 against both melanoma cell lines), about 0.5 µM. Besides, the “Selectivity against both neoplastic cell lines (versus fibroblasts)” value in assay [1] (melanoma cells versus fibroblasts) is reported as “over 10 fold”.
